From US20150125889A1, “IN VITRO DETECTION OF MICROORGANISMS WITH AZOREDUCTASE ACTIVITY” (BIOMÉRIEUX, priority 2012, published 2015)

Columns and labels:
Assay type in all cases: cell-based
Enterococcus faecalis = test: Reduction of azo substrates over 24 hours at 35° C., microtitration plate (Example 1); design: key to RED (substrate reduced or not): RED indicates whether the substrate is reduced (Y) or not (N); RED indicates whether the substrate is reduced (Y) or not (N); key to Decol (substrate decolourized, decrease in absorbance) / Fluo (fluorescence multiplied by 2 relative to substrate-free control) / Co (growth, absorbance at 660 nm): The symbol “+” means good growth/decolourization/significant increase in fluorescence; The symbol “+/−” means difficult growth; The symbol “−” means that there is no growth/decolourization/significant increase in fluorescence; conditions: E. faecalis, substrate 35 mg/l
In short: (§1)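 Readout: A660 for growth; substrate-specific absorbance/fluorescence for azo reduction. Trypcase soya broth, 35 mg/l substrate, 0.5 McFarland inoculum, 35° C., 24 h. Reduced = decolourization and/or fluorescence ≥2× substrate-free control.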

Acinetobacter baumanii = test: as above; design: key to RED (substrate reduced or not): RED indicates whether the substrate is reduced (Y) or not (N); RED indicates whether the substrate is reduced (Y) or not (N); key to Decol (substrate decolourized, decrease in absorbance) / Fluo (fluorescence multiplied by 2 relative to substrate-free control) / Co (growth, absorbance at 660 nm): The symbol “+” means good growth/decolourization/significant increase in fluorescence; The symbol “+/−” means difficult growth; The symbol “−” means that there is no growth/decolourization/significant increase in fluorescence; conditions: A. baumannii, substrate 35 mg/l
In short: as §1

Geotrichum candidum = test: as above; design: key to RED (substrate reduced or not): RED indicates whether the substrate is reduced (Y) or not (N); RED indicates whether the substrate is reduced (Y) or not (N); key to Co (growth, absorbance at 660 nm) / Decol (substrate decolourized, decrease in absorbance) / Fluo (fluorescence multiplied by 2 relative to substrate-free control): The symbol “+” means good growth/decolourization/significant increase in fluorescence; The symbol “+/−” means difficult growth; The symbol “−” means that there is no growth/decolourization/significant increase in fluorescence; conditions: G. candidum, substrate 35 mg/l
In short: as §1

[1] = tested on: 10 strains representing 10 species of microorganisms; test: Reduction of azo substrates, whole panel of Example 1; conditions: substrate 35 mg/l, 35° C., 24 hours
Procedure: Reduction of the “azo” function of the substrates listed in Table I by the species listed in Table II, each species being represented by a strain, is tested in a microtitration plate.
The reaction medium consists of: • Trypcase soya broth • Substrate 35 mg/l • 0.5 MacFarland inoculum
The reduction of the substrate and the growth of the microorganisms are monitored using an Infinite® M200 Tecan microplate reader at 35° C. over 24 hours.
The growth is monitored by the absorbance at 660 nm and the reduction of the substrates by absorbance and fluorescence at the specific wavelengths indicated in Table III.
The substrate is considered as reduced by the microorganisms when the substrate is decolourized (monitored by the decrease in absorbance) (Decol) and/or when the fluorescence of the substrate is multiplied by 2 relative to the base fluorescence of a substrate-free control (Fluo). The growth is indicated by Co. The symbol “+” means good growth/decolourization/significant increase in fluorescence. The symbol “+/−” means difficult growth. The symbol “−” means that there is no growth/decolourization/significant increase in fluorescence. RED indicates whether the substrate is reduced (Y) or not (N).

Citrobacter koseri = test: Reduction of 3 azo substrates over 24 hours at 35° C. (Example 2); design: key: The strains that reduce the substrate are marked with a “+”; the strains that do not reduce the substrate are marked with a “−”; conditions: substrate 35 mg/l
Procedure: (§2) The reduction of the “azo” function of the substrates listed in Table V by the 25 species listed in Table VI, each being represented by one or two strains, is tested in a microtitration plate. The reaction medium consists of: • Trypcase soya broth • Substrate 35 mg/l • 0.5 MacFarland inoculum The reduction of the substrate and the growth of the microorganisms are monitored using an Infinite® M200 Tecan microplate reader at 35° C. over 24 hours. The growth is monitored by the absorbance at 660 nm, and the reduction of the substrates by absorbance and fluorescence at the wavelengths indicated in Table III above. The substrate is considered as reduced by the microorganisms when the fluorescence is multiplied by 2 relative to the base fluorescence of the reaction medium.

Streptococcus pyogenes = test: as above; design: key: The strains that reduce the substrate are marked with a “+”; the strains that do not reduce the substrate are marked with a “−”; conditions: substrate 35 mg/l
Procedure: as §2

[2] = tested on: Staphylococcus haemolyticus; test: as above; design: key: The strains that reduce the substrate are marked with a “+”; the strains that do not reduce the substrate are marked with a “−”; conditions: substrate 35 mg/l
Procedure: as §2

Staphylococcus hominis = test: as above; design: key: The strains that reduce the substrate are marked with a “+”; the strains that do not reduce the substrate are marked with a “−”; conditions: substrate 35 mg/l
Procedure: as §2

Saccharomyces cerevisiae = test: as above; design: key: The strains that reduce the substrate are marked with a “+”; the strains that do not reduce the substrate are marked with a “−”; conditions: substrate 35 mg/l
Procedure: as §2

[3] = tested on: 45 strains representing 25 species of microorganisms; test: Reduction of 3 azo substrates, whole panel of Example 2; conditions: substrate 35 mg/l, 35° C., 24 hours
Procedure: as §2

Compound	Co (growth, absorbance at 660 nm) (Enterococcus faecalis)	Decol (substrate decolourized, decrease in absorbance) (Enterococcus faecalis)	Fluo (fluorescence multiplied by 2 relative to substrate-free control) (Enterococcus faecalis)	RED (substrate reduced or not) (Enterococcus faecalis)	Co (growth, absorbance at 660 nm) (Acinetobacter baumanii)	Decol (substrate decolourized, decrease in absorbance) (Acinetobacter baumanii)	Fluo (fluorescence multiplied by 2 relative to substrate-free control) (Acinetobacter baumanii)	RED (substrate reduced or not) (Acinetobacter baumanii)	Co (growth, absorbance at 660 nm) (Geotrichum candidum)	Decol (substrate decolourized, decrease in absorbance) (Geotrichum candidum)	Fluo (fluorescence multiplied by 2 relative to substrate-free control) (Geotrichum candidum)	RED (substrate reduced or not) (Geotrichum candidum)	reduction by the microorganisms tested (Table IV) [1]	reduction of the substrate by the strain (fluorescence multiplied by 2) (Citrobacter koseri)	reduction of the substrate by the strain (fluorescence multiplied by 2) (Streptococcus pyogenes)	reduction of the substrate by the strain (fluorescence multiplied by 2) [2]	reduction of the substrate by the strain (fluorescence multiplied by 2) (Staphylococcus hominis)	reduction of the substrate by the strain (fluorescence multiplied by 2) (Saccharomyces cerevisiae)	reduction by the species tested (Table VII) [3]
O=C(O)c1cc(/N=N/c2ccc(-c3nc4ccccc4s3)cc2)ccc1O [BF45, 2-Phenyl-benzothiazole-4′-azo-4″- hydroxybenzene-3″-carboxylic acid]	+	+	+	Y	+	−	+	Y	+	−	−	N							
CN(C)c1ccc(N=Nc2ccc(S(=O)(=O)[O-])cc2)cc1.[Na+] [Methyl orange]	+	+	+	Y	+	−	−	N	+	−	−	N	reduced only by E. faecalis						
CN(C)c1ccc(/N=N/c2ccccc2C(=O)O)cc1 [Methyl red]	+	+	+	Y	+	+	+	Y	+/−	+/−	+	Y	can be reduced by all the microorganisms tested						
O=S(=O)([O-])c1ccc(N=Nc2c(O)ccc3ccccc23)cc1.[Na+] [Orange II]	+	+	+	Y	+	−	−	N	+/−	−	−	N		−	−	−	−	−	reduced mainly by E. faecalis
O=C([O-])C1=NN(c2ccc(S(=O)(=O)[O-])cc2)C(=O)C1/N=N/c1ccc(S(=O)(=O)[O-])cc1.[Na+].[Na+].[Na+] (centres unmarked) [Tartrazine]	+	+	+/−	Y	+	−	−	N	+/−	−	−	N		−	−	−	−	−	reduced mainly by E. faecalis
